Laboratory results: US10071965B2, “Pyridone FabI inhibitors and uses thereof” (priority 2015, dated 2018)
In brackets after ≈: the same amount, converted by molar mass. Where two headings read alike, the source gives them in different places.

Key:
[1] = tested on: Bt38; assay: microbe, parasite or virus in culture; assay type: cell-based; details: Burkholderia pseudomallei, read-out: Burkholderia pseudomallei MIC (μg/mL) Bt38
[2] = tested on: E. coli MG1655 ΔacrAB; assay: microbe, parasite or virus in culture; assay type: cell-based, Escherichia coli
[3] = molecular target: Francisella tularensis FabI (Francisella tularensis subsp. tularensis (strain SCHU S4 / Schu 4), UniProt Q5NGQ3); assay: biochemical
[4] = tested on: M. tuberculosis H37Rv; assay: MIC microbroth dilution, M. tuberculosis H37Rv; assay type: cell-based; details: Mycobacterium tuberculosis, H37RV, read-out: Mycobacterium tuberculosis MIC (μg/mL) H37Rv
[5] = tested on: S. aureus RN4220; assay: MIC microbroth dilution, S. aureus RN4220; assay type: cell-based, Staphylococcus aureus; details: for MIC: Staphylococcus aureus
[6] = molecular target: saFabI (Staphylococcus aureus (strain MRSA252), UniProt Q6GI75); assay: saFabI inhibition kinetics; assay type: biochemical
[7] = molecular target: M. tuberculosis enoyl-ACP reductase InhA (Mycobacterium tuberculosis (strain ATCC 25618 / H37Rv), UniProt P9WGR1); assay: InhA inhibition kinetics; assay type: biochemical
[8] = tested on: F. tularensis LVS; assay: microbe, parasite or virus in culture; assay type: cell-based; details: Francisella tularensis, read-out: Francisella tularensis MIC (μg/mL) LVS, 2-pyridones table
[9] = molecular target: ecFabI (Escherichia coli (strain K12), UniProt P0AEK4); assay: ecFabI inhibition kinetics; assay type: biochemical; details: Ki^app (nM), [S]/KS = 0.19
[10] = molecular target: bpFabI (Burkholderia pseudomallei, UniProt A0A0H3HP34); assay: biochemical
[11] = molecular target: YpFabV (Yersinia pestis, UniProt Q8Z9U1); assay: biochemical
[12] = tested on: MRSA strain BAA1762; assay: Neutropenic mouse thigh infection model; assay type: in vivo, Swiss Webster mice; details: MRSA BAA1762, neutropenic mouse thigh, FIG. 8
[13] = RN4220, S. aureus RN4220, read-out: MIC
[14] = Ki^app (nM), saFabI, [S]/KS = 2
[15] = Staphylococcus aureus Ki (in brackets under IC50), 2-pyridones table
[16] = RN4220, 2-pyridones table, read-out: Staphylococcus aureus MIC (μg/mL) RN4220

Compound: CCCCCCc1ccn(Cc2cccc(N)c2C)c(=O)c1 [PT173]
- MIC [1]: 36.3 µg/mL (≈ 122 µM)
- Escherichia coli MIC (μg/mL) MG1655 ΔacrAB ([2]; 2-pyridones table): >425 µg/mL
- MIC ([2]; Escherichia coli, MG1655): > 425 µM
- IC50 [3]: 83 ± 15 nM
- MIC ([4]; 2-pyridones table): 50 µg/mL (≈ 168 µM)
- MIC [5, 13]: 6.7 µM
- IC50 [6]: 68 ± 14 nM
- Ki ([6]; Ki (nM), saFabI): 2 ± 0.4 nM
- Ki ([6]; Ki, saFabI): 1.97 nM
- Ki [6, 14]: 7.3 ± 1.5 nM
- Ki [6, 15]: 2 ± 0.4 nM
- IC50 [7]: > 3200 nM
- MIC [8]: 3.57 µg/mL (≈ 12 µM)
- Ki [9]: 246 ± 10.1 nM
- IC50 [10]: 460 ± 10 nM

Compound: CCCCCCc1ccn(Cc2cccc([N+](=O)[O-])c2C)c(=O)c1 [PT174]
- MIC [1]: 250 µg/mL (≈ 761 µM)
- IC50 [3]: 85 ± 11 nM
- MIC [5, 16]: 50 µg/mL
- IC50 [6]: 248 ± 20 nM
- MIC [8]: 2.12 µg/mL (≈ 6.46 µM)

Compound: CCCCCCc1ccn(Cc2cccnc2F)c(=O)c1 [PT175]
- MIC [1]: 78.3 µg/mL (≈ 272 µM)
- MIC ([4]; 2-pyridones table): 50 µg/mL (≈ 173 µM)
- MIC [5, 16]: 50 µg/mL
- IC50 [6]: > 1000 nM
- IC50 [7]: > 4000 nM
- MIC [8]: 14 µg/mL (≈ 48.4 µM)
- IC50 [10]: > 1000 nM

Compound: CCCCCCc1ccn(Cc2ccccc2)c(=O)c1 [PT179]
- MIC [5, 16]: 32 µg/mL
- MIC [5, 13]: 119 µM
- IC50 [6]: 192 ± 30 nM
- Ki ([6]; Ki (nM), saFabI): 19 ± 2.7 nM
- Ki [6, 14]: 70.4 ± 9.8 nM
- Ki [6, 15]: 19 ± 2.7 nM

Compound: CCCCCCc1cc(=O)c(Oc2cccnc2F)cn1C [PT190]
- MIC ([4]; 4-pyridones table): 25 µg/mL (≈ 82.1 µM)
- IC50 [7]: 641 ± 55 nM

Compound: CCCCCCc1ccc(Oc2ccccc2)c(=O)[nH]1 [PT191]
- IC50 [3]: > 10000 nM
- IC50 [6]: > 2000 nM
- Ki ([6]; Ki (nM), saFabI): 196 ± 22.2 nM
- Ki [6, 14]: 729 ± 82.4 nM
- Ki [6, 15]: 196 ± 22.2 nM
- Mycobacterium tuberculosis enzyme, inhibition ([7]; [I] = 2 μM, [E] = 100 nM): 10%
- IC50 [10]: > 3000 nM

Compound: CCCCCCc1ccc(Oc2ccccc2C)c(=O)[nH]1 [PT192]
- MIC [1]: 8.35 µg/mL (≈ 29.3 µM)
- Staphylococcus aureus MIC (μg/mL) RN4220 ([5]; 2-pyridones table): No
- MIC [8]: 9.2 µg/mL (≈ 32.2 µM)

Compound: CCCCCCc1ccn(Cc2ccccc2C#N)c(=O)c1 [PT420]
- MIC [1]: 44.4 µg/mL (≈ 151 µM)
- IC50 [3]: 727 ± 84 nM
- MIC [5, 16]: 32 µg/mL
- MIC [5, 13]: 109 µM
- IC50 [6]: 746 ± 165 nM
- Ki ([6]; Ki (nM), saFabI): 29.6 ± 9.5 nM
- Ki [6, 14]: 110 ± 1.7 nM
- Ki [6, 15]: 29.6 ± 0.5 nM
- MIC [8]: 10.2 µg/mL (≈ 34.7 µM)

Compound: CCCCCCc1ccn(Cc2cccc(F)c2)c(=O)c1 [PT421]
- MIC [5, 16]: 2 µg/mL
- IC50 [6]: 297 ± 64 nM

Compound: CCCCCCc1ccn(Cc2ccc(F)cc2)c(=O)c1 [PT422]
- MIC [5, 16]: 1 µg/mL
- IC50 [6]: 222 ± 22 nM

Compound: CCCCCCc1ccn(Cc2ccccc2F)c(=O)c1 [PT423]
- MIC [5, 16]: 16 µg/mL
- IC50 [6]: 165 ± 22 nM

Compound: CCCCCCc1ccn(Cc2ccc([N+](=O)[O-])cc2)c(=O)c1 [PT424]
- IC50 [6]: 1500 ± 200 nM
- Ki [11]: 11000 nM

Compound: CCCCCCc1ccn(Cc2ccc(N)cc2)c(=O)c1 [PT425]
- MIC [5, 16]: ~32 µg/mL
- IC50 [6]: 380 ± 20 nM

Compound: CCCCCCc1ccn(Cc2ccc(Cl)cc2)c(=O)c1 [PT426]
- MIC [5, 16]: ~32 µg/mL
- IC50 [6]: 185 ± 18 nM

Compound: CCCCCCc1ccn(Cc2ccc(C(C)=O)cc2)c(=O)c1 [PT427]
- MIC [5, 16]: > 128 µg/mL
- IC50 [6]: 394 ± 40 nM

Compound: Cc1onc(-c2ccccc2)c1C(=O)N[C@@H]1C(=O)N2[C@@H]1SC(C)(C)[C@@H]2C(=O)O [oxacillin]
- in vivo antibacterial efficacy [12]: no in vivo antibacterial efficacy
